Bounds are passed on as bounds.

A word on the melting point: it is the temperature of the solid-liquid transition. Turning to `COc1cc2c(cc1OC)C(C=Cc1ccc(N(C)C)cc1)=NN=C(C)C2`, the melting point lay in the range of 170 to 172 °C.
In the case of `COC(=O)c1ccc(Cn2cc(C=C3C(=O)NC(=O)NC3=O)c3ccccc32)cc1`, the melting point was more than 300 °C.
In the case of `O=C(O)C(=O)c1ccc(OCCOc2cc3ccccc3c3ccccc23)cc1`, the melting point fell in the range of 179 to 180 °C.
Compound `Cc1ccc(C(=O)Nc2ccc(CN3CCCCC3)c(C(F)(F)F)c2)cc1Br` had a melting point of 151 to 153 °C.
The figure for `CCCc1ccc(C(=O)C(=O)OCC)[nH]1` is 48 to 49 °C.
Regarding `Cc1cc(-c2ccc(C(F)(F)F)nc2)nc(-c2ccnc(-c3cccc(S(N)(=O)=O)c3)c2)n1`, the melting point is 255 °C.
Next, `COc1ccc(N2CCN(c3c(C)c(C)c4c(c3C)OC(C)(C)C4c3ccc(C)cc3)CC2)cc1` (configuration not stated): 160 to 162 °C; `COc1cc(CN/C=C2\C(=O)NC(=O)c3ccc(-c4ccc(Oc5ccccc5)cc4)cc32)cc(O)c1OC`: 240 to 241 °C; `Cc1cc(C)c2c(c1)S(=O)(=O)NCN2`: 160 to 165 °C.
Compound `CCOc1ccc(F)c(CCN=C(N)Nc2ccc(Br)cn2)c1Cl` came in with a melting point of 169 to 172 °C.
The figure for `O=c1oc(-c2ccccc2)cc(O)c1C(CC1CC1)SC1CCCCC1` (configuration not stated) is 69 to 71 °C; for `O=C(Nc1ccc(C(=O)N2Cc3cccn3Cc3ccccc32)cc1)c1ccccc1C(F)(F)F` it is 226 to 228 °C; for `COC(=O)c1nc(N2CCCC2)ccc1Oc1nc(OC)cc(OC)n1` it is 151 to 153 °C.
For `N#Cc1ccc(N2C(=N)C3(CCCC3)NC2=O)cc1C(F)(F)F`, the melting point is 212 to 213 °C.
`COc1ccc(CC(C)NC(C)=O)cc1OCc1ccccc1` (configuration not stated) came in with a melting point of 139 °C.
As for `Cc1cc(C#CC2CC2)cc(C)c1Oc1ccc(N)c(Nc2ccc(C#N)cc2)n1`, the melting point lay within 82 to 85 °C.
Compound `CCCCN(CCCCO)c1ccc(C=Cc2ccc(C=CC3=C(C#N)C(=C(C#N)C#N)OC3(C)C(F)(F)F)s2)c(OCc2ccccc2)c1` (configuration not stated) displayed a melting point of 176 to 178 °C.
As to `CS(=O)(=O)N1Cc2sccc2C(O)C1` (configuration not stated), the melting point worked out at 140 °C.
`Cn1cnc(=S)c(-c2cccc(C(F)(F)F)c2)c1`: the melting point was 197 to 200 °C.
On to `COc1cc2c(Nc3ccc(Cl)cc3F)ncnc2cc1OCCn1ccccc1=O`, for which the melting point lay within 209 to 211 °C.
`CC(=O)NC1Cc2cn(S(=O)(=O)c3c(C(C)C)cc(C(C)C)cc3C(C)C)c3cccc(c23)C1=O` (configuration not stated) returned a melting point of 159 to 162 °C.
For the compound `CC1CCCCC1OC(=O)c1ncn2c1C1CCCN1C(=O)c1c(Cl)cccc1-2` (configuration not stated), the melting point is 213 to 215 °C.
Next, `O=C(O)CNCCn1nc(-c2c(-c3ccccc3)nn3ccccc23)ccc1=O`: 230 to 232 °C; `CC(=O)C(C(C)=O)=C1NC(=O)N(Cc2ccccc2)C1=O`: 211 to 212 °C; `Nc1c(Br)cc([N+](=O)[O-])cc1C(F)(F)F`: 84 °C.
The figure for `Cc1nc(NC(=O)c2ccc(OC(F)(F)F)cc2)sc1C(=O)NCc1ccccc1` is 168 to 170 °C.
In the case of `CCCCCCCCCCCCS(=O)(=O)c1cc2c(cc1S(=O)(=O)CCCCCCCCCCCC)C(=O)c1c(c(O)c3ccccc3c1O)C2=O`, the melting point was 173 to 175 °C.
Compound `CC1(C)COS(=O)Oc2ccc(C#N)cc21` (configuration not stated) gave a melting point of 87 to 88 °C.
The figure for `CCOC(=O)c1c(CN(CC)CC)nc2cc(OC)c(OC)cc2c1-c1ccc(OC)c(OC)c1` is 130 to 131 °C; for `COc1cc2ncnc(N3CCN(C(=O)Nc4cccnc4)CC3)c2cc1OC` it is 208 to 209 °C.
As to `O=C1NC(=O)C(Cc2ccc(OCCNc3nc4ccccc4o3)cc2)S1` (configuration not stated), the melting point fell in the range of 202 to 203 °C.
For `CCOc1cccc(C(c2ccccc2Cl)n2nc(C(=O)O)c3c2-c2ccc(OCc4cncnc4)cc2CC3)c1` (configuration not stated), the melting point lay in the range of 234 to 235 °C.
The compound `CC(C)C(C)(C)N1N=C([O-])O[NH2+]1` came in with a melting point of 38 °C.
On to `CC1CCc2c(ccc(F)c2-n2ccnc2)N1` (configuration not stated), for which the melting point fell in the range of 162 to 164 °C.
Next, `O=C(O)c1ccc(C(F)(F)F)cc1-c1ccc2c(c1)OC[C@H](Cc1ccccc1)[C@H]2O`: 142 °C; `CC1(C)CC=C(Nc2ccccc2Cl)C(=O)C1`: 150 to 152 °C; `O=C(O)c1cn(CCc2ccccc2)c2cc(C3CCCC3)nn2c1=O`: 198 to 200 °C.
As for `COCCCC(=O)c1cc(C(=O)O)c2cc(Cc3ccc(F)cc3)cnc2c1O`, the melting point lay within 226 to 228 °C.
As to `COc1ccc(C=O)c(O)c1O`, the melting point is 116 to 117 °C.
The compound `COc1ccc(-c2csc(Nc3cc(C)ccn3)n2)cc1OC` came in with a melting point of 211 to 213 °C.
The figure for `CS(=O)(=O)c1ccc(-c2cc(COCCO[N+](=O)[O-])nn2CC2CCCCC2)cc1` is 98 to 100 °C.
Consider `CCOC(=O)N1CC(=O)NC(=O)N1Cc1ccc(Cl)cc1`, for which the melting point came to 120 °C.
Consider `CCCn1c(=O)c2[nH]c(/C=C/c3cccs3)nc2n(CCC)c1=O`, for which the melting point amounted to 270 °C.
The figure for `CCOC(=O)c1sc2ccc3c(c2c1Cl)O[C@@H](CO)CO3` is 165 to 166 °C; for `BrCc1ccc2ccccc2c1Br` it is 106 to 108 °C.
On to `NC(=O)CNC(=O)c1ccnc(-c2ccc3c(c2)C(c2ccc(Cl)cc2Cl)CC3)c1` (configuration not stated), for which the melting point lay in the range of 168 to 170 °C.
Regarding `N=c1[nH]c2ccc(Cl)cc2c2nc(-c3ccco3)nn12`, the melting point lay in the range of 131 to 133 °C.
Regarding `Brc1ccc(-c2coc3ccc(-c4ccccc4)cc23)cc1`, the melting point lay in the range of 90 to 92 °C.
`CC(=O)N(CCCC(=O)c1ccccc1)C(C)C` returned a melting point of 36 to 39 °C.
Next, `c1ccc(CN2C[C@@H]3SCCC(c4ccccc4)(c4ccccc4)[C@@H]3C2)cc1` (racemic): 130 °C; `CCOCCOc1ccc(OCC(O)CNCCNC(=O)N2CCOCC2)c(Br)c1` (configuration not stated): 98 °C.
In turn, `N#CN=C(Nc1ccc(C#N)c(Br)c1O)Nc1cccc2c1OCO2` displayed a melting point of 164 to 165 °C.
`CC(=O)Nc1cccc(-c2nc3n(n2)CCc2ccccc2-3)c1` returned a melting point of 225 to 226 °C.
In turn, `CC(C)CCOC1CCC(=O)N1` (configuration not stated) gave a melting point of 73 to 75 °C.
With `COc1cc(C(=O)N2CCC(CCN3CCC(C(=O)c4nc5ccccc5n4Cc4ccc(F)cc4)CC3)(c3ccc(Cl)c(Cl)c3)C2)cc(OC)c1OC` (configuration not stated), the melting point fell in the range of 87 to 90 °C.
Next, `CC(C)(C)OC(=O)N1CCC(c2ccc3[nH]c(-c4ccc(S(C)(=O)=O)cc4F)nc3c2)CC1`: 208 to 212 °C.
`CCN(C(=O)c1ccc2nonc2c1)C1CCOCC1` showed a melting point of 102 to 104 °C.
`NCC(=O)Nc1c(Br)cc(Br)cc1Br` displayed a melting point of 185 to 186 °C.
On to `CNC(=O)C(C)Oc1cc(Oc2nn(C)c(C(F)(F)F)c2Cl)ccc1[N+](=O)[O-]` (configuration not stated), for which the melting point lay within 140 to 142 °C.
Turning to `CCCCC1=CC(=C(Br)Br)N(Cc2ccccc2)C1=O`, the melting point was in the range of 56 to 58 °C.
In the case of `CC(=O)Nc1c(C(=O)c2ccccc2)[nH]c2cc(C(F)(F)F)ccc12`, the melting point lay in the range of 177 to 179 °C.
For `O=S(=O)(CCCl)c1ccc(Cl)cc1`, the melting point amounted to 91 °C.
Next, `CCOCCn1cc2c(=O)[nH]c(=O)[nH]c2n1`: more than 300 °C.
In the case of `OC1CSC(Sc2ccc(C(F)(F)F)cc2)C(O)C1O` (configuration not stated), the melting point is 128 to 130 °C.
Turning to `Cc1ncc(CN2CC=C(C#Cc3ccccc3)CC2)c(N)n1`, the melting point was 187 to 188 °C.
`COCc1cnc(NC(=O)C(Cc2ccc(F)cc2)c2ccc(S(C)(=O)=O)cc2)cn1` (configuration not stated) yielded a melting point of 69 to 82.3 °C.
The compound `CCCCCCCC[C@H](CC(=O)OC(C)(C)C)C(=O)N1C(=O)OC[C@@H]1C(C)C` registered a melting point of 58 to 59 °C.
For the compound `C#CCOc1cc(-c2ccc(S(C)(=O)=O)cc2)c(-c2ccc(F)cc2)c(C(F)(F)F)n1`, the melting point is 138 to 139 °C.
Compound `O=C1c2ccc(OC3CC3)cc2CCC1CN1CCC(O)(c2ccccc2)CC1` (configuration not stated) showed a melting point of 187 to 189 °C.
The figure for `Nc1nc(Cl)cc(NCC2(CO)CCC2)n1` is 192 to 194 °C.
`CCCN(CCC)Cc1coc(-c2ncn3c2CN(C)C(=O)c2ccccc2-3)n1` registered a melting point of 109 to 110 °C.
Compound `COC(=O)c1cc(I)c(C(F)(F)F)cc1NC(C)=O` displayed a melting point of 96 to 98 °C.
In turn, `COc1cc(Cc2cnc(N)nc2NC(C)=O)cc(OC)c1C(C)(C)O` registered a melting point of 214 to 216 °C.
Take `COc1ccn2nc(-c3ccccc3)c(-c3ccc(=O)n(C4CCCN(C)C4)n3)c2c1` (configuration not stated): the melting point was 179 to 180 °C.
For the compound `C=CCNC(=O)O[C@H]1C[C@@H](C(=O)OC)[C@]2(C)CC[C@H]3C(=O)O[C@H](c4ccoc4)C[C@]3(C)[C@H]2C1=O`, the melting point lay in the range of 196 to 199 °C.
Turning to `Cc1nc2cc(C#N)ccc2s1`, the melting point was 158 to 160 °C.
As for `CN(Cc1ccc(NC(=O)C2=Cc3cc(-c4ccc5c(c4)OCO5)ccc3SCC2)cc1)C1CCOCC1`, the melting point fell in the range of 193 to 194 °C.
With `Cc1cc(Cl)ccc1N=CNN=C(c1ccc(Cl)cc1)c1ccc(OS(C)(=O)=O)cc1`, the melting point was in the range of 60 to 100 °C.
The figure for `COc1ccc(S(=O)(=O)Nc2cc(C(F)(F)F)ccc2Oc2ccccc2C(=O)O)cc1` is 139 °C.
As for `Cc1ccc(NC2CCCc3cc(C)cnc32)cc1` (configuration not stated), the melting point is 83 to 85 °C.
In turn, `OCC1(c2ccc(Cl)cc2)CCC1` registered a melting point of 53 to 54 °C.
In turn, `Cc1nc(N)c2nc(CONC(C)C)n(CCCCNC(=O)C(C)C)c2c1C` had a melting point of 156 to 157 °C.
In turn, `COc1ccc([C@H]2CC[C@H](c3ccc(OC)c(OC)c3)S2)cc1OC` (relative stereo) displayed a melting point of 103 to 105 °C.
Regarding `CCCCCCCc1cc2cn(C(CC)CC)c(=O)nc2o1`, the melting point is 128 to 130 °C.
In turn, `CCCCCCC(C)(C)c1cc(O)c2c(c1)oc(=O)c1ccc(OC)cc12` displayed a melting point of 149 to 151 °C.
With `CN(C)S(=O)(=O)c1cc(-c2csc(=Nc3ccccc3Cl)n2C)ccc1Cl`, the melting point was in the range of 152 to 154 °C.
The figure for `CN1C(=O)C(=C(Nc2ccc(-c3cn(C)cn3)cc2)c2ccc(CN)cc2)c2ccccc21` is more than 300 °C.

Values taken from a melting point compilation (Tetko et al.; mined from patent text by program, amines drawn as free bases though some values may be those of a salt).
